Test results as given in patent US10647713B2 (Nimbus Lakshmi, Inc., priority 2016, dated 2020).

Target: human TYK2 (JH2domain-pseudokinase) (Homo sapiens (Human), UniProt P29597)
Assay: TYK2 JH2 Domain Binding Assay (KINOMEscan, DiscoveRx)
Settings: 11-point dilution, duplicate
Outline: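 Kd from duplicate 11-point 3-fold dilutions starting at 30,000 nM, fitted by Hill equation with slope fixed at −1. Compounds (final 0.9% DMSO) displace DNA-tagged HEK293-expressed TYK2 JH2 fusion (<0.1 nM) from ligand-coated beads over 1 h at room temperature; eluted kinase read by qPCR.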

human TYK2 (JH2domain-pseudokinase), sequence (P29597 556-888): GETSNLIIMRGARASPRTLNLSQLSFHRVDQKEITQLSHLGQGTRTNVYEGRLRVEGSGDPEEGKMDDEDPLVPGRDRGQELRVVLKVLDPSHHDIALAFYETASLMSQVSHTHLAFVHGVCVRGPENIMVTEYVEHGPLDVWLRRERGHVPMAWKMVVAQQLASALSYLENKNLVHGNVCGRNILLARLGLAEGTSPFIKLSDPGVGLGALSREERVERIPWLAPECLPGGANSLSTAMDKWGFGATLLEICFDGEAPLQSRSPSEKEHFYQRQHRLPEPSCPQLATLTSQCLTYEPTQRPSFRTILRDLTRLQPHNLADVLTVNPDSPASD

| SMILES | Kd [nM] |
| --- | --- |
| Cc1nc2c(Nc3ccc(-c4cnn(C)c4C)cc3S(C)(=O)=O)cc(NC(=O)C3CC3)nc2[nH]1 [I-265, N-(7-((4-(1,5-dimethyl-1H-pyrazol-4-yl)-2-(methylsulfonyl)phenyl)amino)-2-methyl-3H-imidazo[4,5-b]pyridin-5-yl)cyclopropanecarboxamide] | < 0.1 |
| COc1c(Nc2cc(NC(=O)[C@@H]3C[C@@H]3F)nc3[nH]c(C)nc23)cccc1-c1ncn(C)n1 [I-266, (1S,2S)-2-fluoro-N-(7-((2-methoxy-3-(1-methyl-1H-1,2,4-triazol-3-yl)phenyl)amino)-2-methyl-3H-imidazo[4,5-b]pyridin-5-yl)cyclopropane-1-carboxamide] | 0.5 to 1 |
| COc1c(Nc2cc(NC(=O)[C@H]3C[C@H]3F)nc3[nH]c(C)nc23)cccc1-c1ncn(C)n1 [I-267, (1R,2R)-2-fluoro-N-(7-((2-methoxy-3-(1-methyl-1H-1,2,4-triazol-3-yl)phenyl)amino)-2-methyl-3H-imidazo[4,5-b]pyridin-5-yl)cyclopropane-1-carboxamide] | 1 to 10 |
| Cc1nc2c(Nc3ccc(-c4cnn(C)c4)cc3N(C)S(C)(=O)=O)cc(NC(=O)[C@@H]3C[C@@H]3F)nc2[nH]1 [I-268, (1S,2S)-2-fluoro-N-(2-methyl-7-((4-(1-methyl-1H-pyrazol-4-yl)-2-(N-methylmethylsulfonamido)phenyl)amino)-3H-imidazo[4,5-b]pyridin-5-yl)cyclopropane-1-carboxamide] | 0.1 to 0.5 |
| Cc1nc2c(Nc3ccc(-c4cnn(C)c4)cc3N(C)S(C)(=O)=O)cc(NC(=O)[C@H]3C[C@H]3F)nc2[nH]1 [I-269, (1R,2R)-2-fluoro-N-(2-methyl-7-((4-(1-methyl-1H-pyrazol-4-yl)-2-(N-methylmethylsulfonamido)phenyl)amino)-3H-imidazo[4,5-b]pyridin-5-yl)cyclopropane-1-carboxamide] | 0.1 to 0.5 |
| CN(c1cc(-c2cncn2C)ccc1Nc1cc(NC(=O)[C@@H]2CC2(F)F)nc2[nH]c(C(F)F)nc12)S(C)(=O)=O [I-270, (S)—N-(2-(difluoromethyl)-7-((4-(1-methyl-1H-imidazol-5-yl)-2-(N-methylmethylsulfonamido)phenyl)amino)-3H-imidazo[4,5-b]pyridin-5-yl)-2,2-difluorocyclopropane-1-carboxamide] | 0.1 to 0.5 |
| CN(c1cc(-c2cncn2C)ccc1Nc1cc(NC(=O)[C@H]2CC2(F)F)nc2[nH]c(C(F)F)nc12)S(C)(=O)=O [I-271, (R)—N-(2-(difluoromethyl)-7-((4-(1-methyl-1H-imidazol-5-yl)-2-(N-methylmethylsulfonamido)phenyl)amino)-3H-imidazo[4,5-b]pyridin-5-yl)-2,2-difluorocyclopropane-1-carboxamide] | 1 to 10 |
| CS(=O)(=O)c1cc(C2CC2)ccc1Nc1cc(Nc2cccc(C(F)(F)F)n2)nc2[nH]c(C(F)F)nc12 [I-272] | 1 to 10 |
| Cc1nc2c(Nc3ccc(C4CC4)cc3S(C)(=O)=O)cc(Nc3cccc(C(F)(F)F)n3)nc2[nH]1 [I-273] | 0.5 to 1 |
| Cc1nc2c(Nc3ccc(-c4cncn4C)cc3N(C)S(C)(=O)=O)cc(NC(=O)[C@@H]3CC3(F)F)nc2[nH]1 [I-274, (S)-2,2-difluoro-N-(2-methyl-7-((4-(1-methyl-1H-imidazol-5-yl)-2-(N-methylmethylsulfonamido)phenyl)amino)-3H-imidazo[4,5-b]pyridin-5-yl)cyclopropane-1-carboxamide] | 0.1 to 0.5 |
| Cc1nc2c(Nc3ccc(-c4cncn4C)cc3N(C)S(C)(=O)=O)cc(NC(=O)[C@H]3CC3(F)F)nc2[nH]1 [I-275, (R)-2,2-difluoro-N-(2-methyl-7-((4-(1-methyl-1H-imidazol-5-yl)-2-(N-methylmethylsulfonamido)phenyl)amino)-3H-imidazo[4,5-b]pyridin-5-yl)cyclopropane-1-carboxamide] | 1 to 10 |
| Cc1cc(-c2ccc(Nc3cc(Nc4cccc(C#N)n4)nc4[nH]c(C(F)F)nc34)c(S(C)(=O)=O)c2)nn1C [I-277] | 0.1 to 0.5 |
| Cc1nc2c(Nc3ccc([C@@H]4CCCCO4)cc3S(C)(=O)=O)cc(NC(=O)[C@H]3CC3(F)F)nc2[nH]1 [I-278, (R)-2,2-difluoro-N-(2-methyl-7-((2-(methylsulfonyl)-4-((S)-tetrahydro-2H-pyran-2-yl)phenyl)amino)-3H-imidazo[4,5-b]pyridin-5-yl)cyclopropane-1-carboxamide] | 0.1 to 0.5 |
| Cc1nc2c(Nc3ccc([C@@H]4CCCCO4)cc3S(C)(=O)=O)cc(NC(=O)[C@@H]3CC3(F)F)nc2[nH]1 [I-279, (S)-2,2-difluoro-N-(2-methyl-7-((2-(methylsulfonyl)-4-((S)-tetrahydro-2H-pyran-2-yl)phenyl)amino)-3H-imidazo[4,5-b]pyridin-5-yl)cyclopropane-1-carboxamide] | 1 to 10 |
| CS(=O)(=O)c1cc([C@H]2CCCCO2)ccc1Nc1cc(NC(=O)[C@H]2CC2(F)F)nc2[nH]c(C(F)F)nc12 [I-280, (R)—N-(2-(difluoromethyl)-7-((2-(methylsulfonyl)-4-((R)-tetrahydro-2H-pyran-2-yl)phenyl)amino)-3H-imidazo[4,5-b]pyridin-5-yl)-2,2-difluorocyclopropane-1-carboxamide] | 0.5 to 1 |
| CS(=O)(=O)c1cc([C@H]2CCCCO2)ccc1Nc1cc(NC(=O)[C@@H]2CC2(F)F)nc2[nH]c(C(F)F)nc12 [I-281, (S)—N-(2-(difluoromethyl)-7-((2-(methylsulfonyl)-4-((R)-tetrahydro-2H-pyran-2-yl)phenyl)amino)-3H-imidazo[4,5-b]pyridin-5-yl)-2,2-difluorocyclopropane-1-carboxamide] | 1 to 10 |
| Cc1nc2c(Nc3ccc(C4=NC(C)(C)CO4)cc3S(C)(=O)=O)cc(NC(=O)[C@@H]3C[C@@H]3F)nc2[nH]1 [I-282, (1S,2S)—N-(7-((4-(4,4-dimethyl-4,5-dihydrooxazol-2-yl)-2-(methylsulfonyl)phenyl)amino)-2-methyl-3H-imidazo[4,5-b]pyridin-5-yl)-2-fluorocyclopropane-1-carboxamide] | 1 to 10 |
| CC1(C)CN=C(c2ccc(Nc3cc(NC(=O)C4CC4)nc4[nH]c(C(F)F)nc34)c(S(C)(=O)=O)c2)O1 [I-283, N-(2-(difluoromethyl)-7-((4-(5,5-dimethyl-4,5-dihydrooxazol-2-yl)-2-(methylsulfonyl)phenyl)amino)-3H-imidazo[4,5-b]pyridin-5-yl)cyclopropanecarboxamide] | 1 to 10 |
| Cc1nc2c(Nc3ccc(C4=NCC(C)(C)O4)cc3S(C)(=O)=O)cc(NC(=O)C3CC3)nc2[nH]1 [I-284, N-(7-((4-(5,5-dimethyl-4,5-dihydrooxazol-2-yl)-2-(methylsulfonyl)phenyl)amino)-2-methyl-3H-imidazo[4,5-b]pyridin-5-yl)cyclopropanecarboxamide] | 0.5 to 1 |
| CP(C)(=O)c1cc(C2CC2)ccc1Nc1cc(NC(=O)C2CC2)nc2[nH]c(C(F)F)nc12 [I-285, N-(7-((4-cyclopropyl-2-(dimethylphosphoryl)phenyl)amino)-2-(difluoromethyl)-3H-imidazo[4,5-b]pyridin-5-yl)cyclopropanecarboxamide] | 0.1 to 0.5 |
| Cc1nc2c(Nc3ccc(C4CC4)cc3P(C)(C)=O)cc(NC(=O)C3CC3)nc2[nH]1 [I-286, N-(7-((4-cyclopropyl-2-(dimethylphosphoryl)phenyl)amino)-2-methyl-3H-imidazo[4,5-b]pyridin-5-yl)cyclopropanecarboxamide] | 0.1 to 0.5 |
| CS(=O)(=O)c1cc(-c2ccn(C3CC3)n2)ccc1Nc1cc(NC(=O)C2CC2)nc2[nH]c(C(F)F)nc12 [I-287, N-(7-((4-(1-cyclopropyl-1H-pyrazol-3-yl)-2-(methylsulfonyl)phenyl)amino)-2-(difluoromethyl)-3H-imidazo[4,5-b]pyridin-5-yl)cyclopropanecarboxamide] | 0.1 to 0.5 |
| Cc1csc(-c2ccc(Nc3cc(NC(=O)C4CC4)nc4[nH]c(C(F)F)nc34)c(S(C)(=O)=O)c2)n1 [I-288, N-(2-(difluoromethyl)-7-((2-(methylsulfonyl)-4-(4-methylthiazol-2-yl)phenyl)amino)-3H-imidazo[4,5-b]pyridin-5-yl)cyclopropanecarboxamide] | 0.1 to 0.5 |
| Cc1csc(-c2ccc(Nc3cc(NC(=O)C4CC4)nc4[nH]c(C)nc34)c(S(C)(=O)=O)c2)n1 [I-289, N-(2-methyl-7-((2-(methylsulfonyl)-4-(4-methylthiazol-2-yl)phenyl)amino)-3H-imidazo[4,5-b]pyridin-5-yl)cyclopropanecarboxamide] | 0.1 to 0.5 |
| Cc1cc(-c2ccc(Nc3cc(Nc4cccc(C(F)(F)F)n4)nc4[nH]c(C(F)F)nc34)c(S(C)(=O)=O)c2)nn1C [I-290, 2-(difluoromethyl)-N7-(4-(1,5-dimethyl-1H-pyrazol-3-yl)-2-(methylsulfonyl)phenyl)-N5-(6-(trifluoromethyl)pyridin-2-yl)-3H-imidazo[4,5-b]pyridine-5,7-diamine] | 0.5 to 1 |
| Cc1nc2c(Nc3ccc([C@@H]4CCOC4)cc3S(C)(=O)=O)cc(NC(=O)C3CC3)nc2[nH]1 [I-291, (S)—N-(2-methyl-7-((2-(methylsulfonyl)-4-(tetrahydrofuran-3-yl)phenyl)amino)-3H-imidazo[4,5-b]pyridin-5-yl)cyclopropanecarboxamide] | 0.5 to 1 |
| Cc1nc2c(Nc3ccc([C@H]4CCOC4)cc3S(C)(=O)=O)cc(NC(=O)C3CC3)nc2[nH]1 [I-292, (R)—N-(2-methyl-7-((2-(methylsulfonyl)-4-(tetrahydrofuran-3-yl)phenyl)amino)-3H-imidazo[4,5-b]pyridin-5-yl)cyclopropanecarboxamide] | 1 to 10 |
| CS(=O)(=O)c1cc(C2CCOCC2)ccc1Nc1cc(NC(=O)[C@@H]2CC2(F)F)nc2[nH]c(C(F)F)nc12 [I-293, (S)—N-(2-(difluoromethyl)-7-((2-(methylsulfonyl)-4-(tetrahydro-2H-pyran-4-yl)phenyl)amino)-3H-imidazo[4,5-b]pyridin-5-yl)-2,2-difluorocyclopropane-1-carboxamide] | 1 to 10 |
